In PubChem BioAssay (NCI):
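Briefly, cells in 96-well plates were exposed to five compound concentrations for 48 h, and endpoints were estimated by linear interpolation. GI50 is the concentration that inhibits growth by half. TGI: total growth inhibition.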 *1 amine or outer side, *2 acyl side, *3 side chain or, on linkers, in order; H or OH if unused. Where a SMILES comes first, the peptide text is derived from it. CO = O=C([*:1])[*:2]

Columns and labels:
Assay in all cases: inhibition of tumour cell growth, NCI panel, 48 h
[1] = tested on: 786-0 renal
[2] = tested on: MCF7 breast
[3] = tested on: NCI-H460 lung
[4] = tested on: SF-295 CNS
[5] = tested on: SNB-75 CNS
[6] = tested on: HL-60(TB) leukemia
[7] = tested on: MALME-3M melanoma
[8] = tested on: MOLT-4 leukemia
[9] = tested on: SK-MEL-2 melanoma
[10] = tested on: SR leukemia

Row | Structure (SMILES) | GI50 [1] [µM] | TGI [1] [µM] | GI50 [2] [µM] | TGI [2] [µM] | GI50 [3] [µM] | TGI [3] [µM] | GI50 [4] [µM] | TGI [4] [µM] | GI50 [5] [µM] | TGI [5] [µM] | TGI [6] [µM] | TGI [7] [µM] | TGI [8] [µM] | TGI [9] [µM] | TGI [10] [µM] | GI50 [6] [µM] | GI50 [7] [µM] | GI50 [8] [µM] | GI50 [9] [µM] | GI50 [10] [µM]
1 | CCCCCCCCO/N=C\c1c2c(O)c3c(O)c(C)c4c(c3c1O)C(=O)C(C)(O/C=C\C(OC)C(C)C(OC(C)=O)C(C)C(O)C(C)C(O)C(C)/C=C\C=C(\C)C(=O)N2)O4 (stereo unspecified) | 1.13 | 2.77 | 1.36 | 5.12 | 0.998 | 2.14 | 0.953 | 2.56 | 1.66 | 6.97 | – | – | – | – | – | – | – | – | – | –
2 | CO/C=C/c1cc2c(cc1C(OC)OC)OCO2 | – | > 100 | – | – | – | > 100 | – | – | – | 36.8 | 18.9 | > 100 | > 100 | > 100 | > 100 | – | – | – | – | –
3 | CC1CC(C)C(=O)C(C(=O)CC2CC(=O)NC2=O)C1 (stereo unspecified) | – | > 100 | – | – | – | > 100 | – | > 100 | – | > 100 | > 100 | > 100 | – | – | > 100 | – | – | – | – | –
4 | CC(=O)[CH-]C(C)=O.CC(=O)[CH-]C(C)=O.CC(=O)[CH-]C(C)=O.[Cl-].[Hf+4] | > 100 | > 100 | – | – | > 100 | > 100 | > 100 | > 100 | – | – | > 100 | > 100 | > 100 | > 100 | > 100 | > 100 | > 100 | > 100 | > 100 | > 100
5 | CCN(CC)CCCN1C(=O)c2c(c(C)c3c(oc4cc(O)ccc43)c2C)C1=O | 1.8 | 3.43 | – | – | 1.82 | 3.35 | 1.84 | 3.32 | 1.52 | 2.91 | 3.67 | 3.51 | – | 32.6 | 3.99 | 1.69 | 1.83 | – | 15.7 | 1.58
6 | CC1(C)OC(=O)C=C(O)O1.CC1(C)OC(=O)C=C(O)O1.CCO.Oc1ccc2c(c1)CCC2.[Ti] | > 100 | > 100 | – | – | > 100 | > 100 | > 100 | > 100 | > 100 | > 100 | > 100 | > 100 | > 100 | > 100 | – | > 100 | > 100 | > 100 | > 100 | –
7 | CCCN1C(=O)/C(=C/c2ccc(O)cc2)SC1=Nc1ccccc1 | 20.5 | 36.9 | – | – | 15.2 | 29.9 | 27.9 | 68.7 | – | – | > 100 | – | > 100 | > 100 | > 100 | > 100 | – | > 100 | 51 | 14
8 | Cc1ccc(-c2nc3nc(-c4ccc(Cl)cc4)nc(N4CCCNCC4)c3o2)cc1 | 1.86 | 3.54 | 1.7 | 3.39 | 1.93 | 3.76 | 1.82 | 3.39 | 1.2 | 2.47 | 3.25 | 3.17 | 3.72 | 3.94 | – | 1.4 | 1.7 | 1.91 | 2.04 | –
9 | O=C(Nc1ccc(N=Nc2ccccc2)cc1)Sc1ccccc1C(=O)O | – | > 100 | – | – | – | > 100 | – | > 100 | – | > 100 | > 100 | – | > 100 | > 100 | > 100 | – | – | – | – | –
10 | CC(C)C(NC(=O)C(CCCN=C(N)N)NC(=O)NC(Cc1ccccc1)C(=O)O)C(=O)NC(C=O)CCCN=C(N)N (stereo not drawn) ({Phe-CO}-Arg-Val-Arg-aldehyde; configuration not given here) | > 5 | > 5 | > 5 | > 5 | > 5 | > 5 | > 5 | > 5 | > 5 | > 5 | – | > 5 | – | > 5 | – | – | > 5 | – | > 5 | –
11 | COc1cc2c(cc1OCCCCCN1CCN(c3cc(=O)oc4c(C)c(OC)ccc34)CC1)N=C[C@@H]1CCCN1C2=O | < 0.01 | – | < 0.01 | 3.43 | 0.0197 | 1.71 | < 0.0139 | 2.42 | < 0.0155 | < 0.0281 | 1.2 | 0.0531 | 0.0106 | < 0.0175 | – | < 0.01 | 0.0182 | < 0.01 | < 0.01 | –
12 | NC1=NN(c2ccccc2)C(=O)C1C(=O)C(=O)Nc1cccc(C(F)(F)F)c1 (stereo unspecified) | – | > 100 | – | – | – | > 100 | – | > 100 | – | – | > 100 | > 100 | > 100 | > 100 | – | – | – | – | – | –
